{"source": "patent US11466044B2", "about": "(WAYNE STATE UNIVERSITY, priority 2017, dated 2022)", "key": {"N. gonorrhoeae": {"test_system": "N. gonorrhoeae", "experiment": "Disk diffusion, N. gonorrhoeae", "assay_type": "cell-based", "conditions": "Neisseria gonorrhoeae"}, "[1]": {"test_system": "Klebsiella pneumonia AG215", "experiment": "MIC by broth microdilution, Klebsiella pneumonia", "assay_type": "cell-based", "conditions": "Klebsiella pneumoniae; strain AG215 Klebsiella pneumonia; read-out: MIC AG215 K. pneumon"}, "P aeruginosa": {"test_system": "P aeruginosa", "experiment": "MIC by broth microdilution, P aeruginosa isolates", "assay_type": "cell-based, Pseudomonas aeruginosa"}, "M. smegmatis SZ380": {"test_system": "M. smegmatis SZ380", "experiment": "MIC by broth microdilution, M. smegmatis", "conditions": "Mycolicibacterium smegmatis"}, "[2]": {"test_system": "Enterobacter cloacae AG290", "experiment": "MIC by broth microdilution, Enterobacter cloacae", "assay_type": "cell-based", "conditions": "strain AG290 Enterobacter cloacae; read-out: MIC AG290 E. cloacae"}, "[3]": {"test_system": "Acinetobacter baumannii pittii AG225", "experiment": "MIC by broth microdilution, Acinetobacter baumannii", "assay_type": "cell-based", "conditions": "strain AG225 Acinetobacter baumannii pittii"}, "E coli wild type": {"test_system": "E coli wild type", "experiment": "MIC by broth microdilution, wild type E coli", "assay_type": "cell-based", "conditions": "Escherichia coli"}, "[4]": {"test_system": "E coli carrying specific resistance determinants", "experiment": "MIC by broth microdilution, E coli carrying specific resistance determinants", "assay_type": "cell-based", "conditions": "Escherichia coli"}, "[5]": {"test_system": "rabbit reticulocyte ribosomes", "experiment": "in-vitro translation assay, rabbit reticulocyte ribosomes", "assay_type": "biochemical", "conditions": "mammalian cytosolic ribosomes (rabbit)"}, "[6]": {"test_system": "wild type bacterial ribosomes", "experiment": "in-vitro translation assay, bacterial ribosomes", "assay_type": "biochemical", "excerpt": "(§1) The antiribosomal activity of these compounds was investigated with cell-free translation assays using both wild type bacterial ribosomes and hybrid ribosomes carrying eukaryotic decoding A sites enabling the prediction of selectivity."}, "M. abscessus": {"test_system": "M. abscessus", "experiment": "MIC by broth microdilution, M. abscessus", "assay_type": "cell-based", "conditions": "Mycobacteroides abscessus"}, "[7]": {"test_system": "mitochondrial ribosome (human chimeric)", "assay_type": "biochemical", "excerpt": "as §1"}, "[8]": {"test_system": "cytosolic ribosome (human chimeric)", "assay_type": "biochemical", "excerpt": "as §1"}, "MRSA": {"test_system": "MRSA", "experiment": "MIC by broth microdilution, MRSA isolates", "assay_type": "cell-based", "conditions": "Staphylococcus aureus, MRSA"}, "[9]": {"test_system": "A1555G mutant mitochondrial ribosome (human chimeric)", "experiment": "in-vitro translation assay, human chimeric ribosomes, A1555G mutant mitochondrial decoding site", "assay_type": "biochemical", "conditions": "human mitochondrial decoding site with A1555G point mutation; read-out: IC50 Mitoch. A1555G", "excerpt": "as §1"}, "[10]": {"conditions": "SZ380, read-out: MIC SZ380 M. smegmatis, strain SZ380 Mycobacterium smegmatis"}, "[11]": {"conditions": "ATCC25922, strain AG212 E. coli (ATCC25922), read-out: MIC AG212 E. coli"}, "[12]": {"conditions": "clinical isolate AG160 WT, Table 2 (Example 4), read-out: MIC AG160 E. coli WT"}, "[13]": {"conditions": "engineered strain pH430 WT, Table 2 (Example 4), read-out: MIC pH430 E. coli WT"}, "[14]": {"conditions": "read-out: MIC AG037 E. coli APH(3′)-III"}, "[15]": {"conditions": "read-out: MIC AG163 E. coli APH(3′)-I"}, "[16]": {"conditions": "read-out: MIC AG166 E. coli APH(3′)-II"}, "[17]": {"conditions": "read-out: MIC pH421 E. coli APH(3′)-I"}, "[18]": {"conditions": "read-out: MIC pH422 E. coli APH(3′)-II"}, "[19]": {"conditions": "read-out: MIC pH423 E. coli APH(3′)-VI"}}, "note": "Like-named read-outs stand apart in the source and are kept apart here.", "data": [{"smiles": "CCC[C@@H]1C(CO)O[C@H](O[C@@H]2C(N)C[C@@H](N)C(O)[C@H]2O[C@@H]2O[C@H](CO)[C@H](O[C@H]3OC(CN)[C@@H](O)C(O)C3N)C2O)[C@@H](N)C1O", "note": "(some centres unmarked) [Compound 079]", "values": [{"measurement": "zone of inhibition at 25 nmol/disc", "setting": "N. gonorrhoeae", "result": 16, "unit": "mm"}, {"measurement": "MIC", "setting": "[1]", "result": 0.5, "unit": "µg/mL"}, {"measurement": "MIC", "setting": "P aeruginosa; strain AG220 Pseudomonas aeruginosa ATCC27853, read-out: MIC AG220 P. aerugin", "result": 4, "unit": "µg/mL"}, {"measurement": "MIC", "setting": "M. smegmatis SZ380; [10]", "result": 0.5, "unit": "µg/mL"}, {"measurement": "MIC", "setting": "[2]", "result": 0.5, "unit": "µg/mL"}, {"measurement": "MIC", "setting": "[3]", "result": "1 to 2", "unit": "µg/mL"}, {"measurement": "MIC", "setting": "E coli wild type; [11]", "result": 1, "unit": "µg/mL"}, {"measurement": "MIC", "setting": "E coli wild type; [12]", "result": 1, "unit": "µg/mL"}, {"measurement": "MIC", "setting": "E coli wild type; [13]", "result": 0.5, "unit": "µg/mL"}, {"measurement": "MIC", "setting": "[4]; [14]", "result": "> 64", "unit": "µg/mL"}, {"measurement": "MIC", "setting": "[4]; [15]", "result": "> 64", "unit": "µg/mL"}, {"measurement": "MIC", "setting": "[4]; [16]", "result": "1 to 2", "unit": "µg/mL"}, {"measurement": "MIC", "setting": "[4]; [17]", "result": "> 32", "unit": "µg/mL"}, {"measurement": "MIC", "setting": "[4]; [18]", "result": 4, "unit": "µg/mL"}, {"measurement": "MIC", "setting": "[4]; [19]", "result": 1, "unit": "µg/mL"}]}, {"smiles": "NC[C@H]1O[C@H](O[C@H]2[C@H](O[C@@H]3O[C@H](CO)[C@@H](O)[C@H]3O)[C@@H](O)[C@H](N)C[C@@H]2N)[C@H](N)[C@@H](O)[C@@H]1O", "note": "[Ribostamycin, ribostamycin, reference compound]", "values": [{"measurement": "IC50", "setting": "[5]", "result": 172, "unit": "µM"}, {"measurement": "IC50", "setting": "[6]; Mycobacterium smegmatis ribosomes, read-out: IC50 Bacterial", "result": 90, "unit": "nM"}, {"measurement": "IC50", "setting": "[6]; bacterial ribosome, Table 3 (Example 1), read-out: IC50 Bac", "result": 90, "unit": "nM"}, {"measurement": "MIC", "setting": "[1]", "result": 2, "unit": "µg/mL"}, {"measurement": "MIC", "setting": "M. abscessus; ATCC19977, ATCC 19977 WT, Table 5 (Example 3), read-out: MIC M. abscessus ATCC 19977 WT", "result": 128, "unit": "µg/mL"}, {"measurement": "MIC", "setting": "M. abscessus; read-out: MIC M. abscessus clinical isolate", "result": 128, "unit": "µg/mL"}, {"measurement": "MIC", "setting": "M. abscessus; read-out: MIC M. abscessus engineered Δeis2", "result": 32, "unit": "µg/mL"}, {"measurement": "MIC", "setting": "P aeruginosa; Pseudomonas aeruginosa, ATCC27853, read-out: MIC AG220 P. aerugin", "result": "> 128", "unit": "µg/mL"}, {"measurement": "MIC", "setting": "P aeruginosa; Pseudomonas aeruginosa, read-out: MIC AG031 P. aer. APH(3′)-II", "result": "> 128", "unit": "µg/mL"}, {"measurement": "MIC", "setting": "P aeruginosa; Pseudomonas aeruginosa, read-out: MIC AG032 P. aer. APH(3′)-II", "result": "> 128", "unit": "µg/mL"}, {"measurement": "MIC", "setting": "M. smegmatis SZ380; SZ380, read-out: MIC M. smegmatis SZ380 WT, SZ380 WT, Table 5 (Example 3)", "result": 8, "unit": "µg/mL"}, {"measurement": "MIC", "setting": "M. smegmatis SZ380; [10]", "result": 8, "unit": "µg/mL"}, {"measurement": "MIC", "setting": "[2]", "result": 4, "unit": "µg/mL"}, {"measurement": "MIC", "setting": "[3]", "result": 4, "unit": "µg/mL"}, {"measurement": "MIC", "setting": "E coli wild type; [11]", "result": 4, "unit": "µg/mL"}, {"measurement": "MIC", "setting": "E coli wild type; WT, Table 3 (Example 1), read-out: MIC WT", "result": 2, "unit": "µg/mL"}, {"measurement": "MIC", "setting": "E coli wild type; WT, Table 5 (Example 3), read-out: MIC E. coli WT", "result": 2, "unit": "µg/mL"}, {"measurement": "MIC", "setting": "E coli wild type; clinical isolate AG001, WT, read-out: MIC AG001 E. coli WT", "result": 4, "unit": "µg/mL"}, {"measurement": "MIC", "setting": "E coli wild type; clinical isolate AG055, WT, read-out: MIC AG055 E. coli WT", "result": 2, "unit": "µg/mL"}, {"measurement": "MIC", "setting": "E coli wild type; [12]", "result": 4, "unit": "µg/mL"}, {"measurement": "MIC", "setting": "E coli wild type; [13]", "result": 2, "unit": "µg/mL"}, {"measurement": "IC50", "setting": "[7]; mitochondrial, Table 3 (Example 1), read-out: IC50 Mit", "result": 443, "unit": "µM"}, {"measurement": "IC50", "setting": "[7]; ribosomes with a human mitochondrial decoding site, read-out: IC50 Mitoch.", "result": 443, "unit": "µM"}, {"measurement": "IC50", "setting": "[8]; cytosolic, Table 3 (Example 1), read-out: IC50 Cyt", "result": 484, "unit": "µM"}, {"measurement": "IC50", "setting": "[8]; ribosomes with a human cytosolic decoding site, read-out: IC50 Cytosolic", "result": 484, "unit": "µM"}, {"measurement": "MIC", "setting": "MRSA; read-out: MIC AG039 MRSA AAC(6′)-I ANT(4′)-I", "result": "> 128", "unit": "µg/mL"}, {"measurement": "MIC", "setting": "MRSA; read-out: MIC AG042 MRSA AAC(6′)-I ANT(4′)-I APH(2′)", "result": "> 128", "unit": "µg/mL"}, {"measurement": "MIC", "setting": "MRSA; clinical isolate AG038, read-out: MIC AG038 MRSA", "result": 4, "unit": "µg/mL"}, {"measurement": "MIC", "setting": "MRSA; clinical isolate AG044, read-out: MIC AG044 MRSA", "result": 8, "unit": "µg/mL"}, {"measurement": "IC50", "setting": "[9]", "result": 68, "unit": "µM"}, {"measurement": "MIC", "setting": "[4]; read-out: MIC AG003 E. coli AAC(3)-II", "result": 4, "unit": "µg/mL"}, {"measurement": "MIC", "setting": "[4]; [14]", "result": "32 to 64", "unit": "µg/mL"}, {"measurement": "MIC", "setting": "[4]; [15]", "result": "> 128", "unit": "µg/mL"}, {"measurement": "MIC", "setting": "[4]; [16]", "result": "> 128", "unit": "µg/mL"}, {"measurement": "MIC", "setting": "[4]; read-out: MIC APH(3)-VI", "result": "> 64", "unit": "µg/mL"}, {"measurement": "MIC", "setting": "[4]; read-out: MIC APH(3′)-I", "result": "> 64", "unit": "µg/mL"}, {"measurement": "MIC", "setting": "[4]; read-out: MIC APH(3′)-II", "result": "> 64", "unit": "µg/mL"}, {"measurement": "MIC", "setting": "[4]; read-out: MIC APH(3′)-III", "result": "32 to 64", "unit": "µg/mL"}, {"measurement": "MIC", "setting": "[4]; read-out: MIC E. coli AG106 AAC(2′)-Ia", "result": 128, "unit": "µg/mL"}, {"measurement": "MIC", "setting": "[4]; read-out: MIC E. coli pGB2armA armA", "result": 2, "unit": "µg/mL"}, {"measurement": "MIC", "setting": "[4]; read-out: MIC E. coli pH434 AAC(2′)-Ib", "result": "> 128", "unit": "µg/mL"}, {"measurement": "MIC", "setting": "[4]; [17]", "result": "> 128", "unit": "µg/mL"}, {"measurement": "MIC", "setting": "[4]; [18]", "result": "128 to 256", "unit": "µg/mL"}, {"measurement": "MIC", "setting": "[4]; [19]", "result": "> 128", "unit": "µg/mL"}]}]}
